Values quoted from earlier work as cited in patent US20160101079A1 (priority 2014, published 2016).

How the values were obtained:
[1] = tested on: glycoprotein shedding (Ebola virus GP; TACE)
[2] = tested on: rotaviruses; details: 10 mM
[3] = tested on: Human Foreskin (HF) cells infected with HSV-2-strain G; details: 3 to 1.5 mM

Row | SMILES | concentration at which inhibition of GP shedding was observed [1] [mM] | also measured
1 | CNC(=O)[C@@H](NC(=O)[C@H](CC(C)C)[C@H](O)C(=O)NO)C(C)(C)C [BB2516] | 0.5 | –
2 | O=C(O)CN(CCN(CC(=O)O)CC(=O)O)CC(=O)O [EDTA, ethylenediaminetetraacetic acid] | – | effect on rotavirus particles [2]: single-shelled, double-layered, non-infectious viral particles
3 | CNC(=O)[C@H](Cc1c[nH]c2ccccc12)NC(=O)[C@@H](CC(=O)NO)CC(C)C [GM6001] | 5 | –
4 | COc1ccc(S(=O)(=O)N2Cc3ccccc3C[C@@H]2C(=O)NO)cc1 [MMP-8 inhibitor I] | 5 | –
5 | O=C(O)c1ccccn1 [picolinic acid] | – | effect on HSV-2 infected HF cells [3]: cause apoptosis of HF infected cells
